Source: patent publication US20240262857A1, “NOVEL UNIVERSAL ANTI-RNA VIRUS AGENTS” (priority 2021, published 2024)
Read-outs that look alike come from different tables or passages of the source.

Columns and labels:
[1] = Cellular toxicity assay, Huh7 cells; assay type: cell-based; details: human, read-out: Cytotoxicity CC50 Huh7
[2] = Cellular toxicity assay, Vero cells; details: African green monkey
SARS-CoV-2 = assay: microbe, parasite or virus in culture; assay type: cell-based
[3] = Cellular toxicity assay, PBM cells; details: human
[4] = Cellular toxicity assay, CEM cells; details: human
Vero cells [5] = assay: Cellular toxicity assay, Vero cells; details: read-out: Cytotoxicity CC50 Vero; Vero cells
Vero cells [6] = assay: Incubation of NHC in Vero cells, LC-MS/MS of deoxy-NHC derivatives; details: 4 h at 37° C.
HCoV-OC43 = assay: microbe, parasite or virus in culture; assay type: cell-based; details: Betacoronavirus 1, OC43
CEM cells = assay: Cellular toxicity assay, CEM cells; details: read-out: Cytotoxicity CC50 CEM; CEM cells
[7] = target: T1, ribonucleotide reductase (RNR) (Homo sapiens, UniProt P23921)
T1 sequence (P23921 1-792): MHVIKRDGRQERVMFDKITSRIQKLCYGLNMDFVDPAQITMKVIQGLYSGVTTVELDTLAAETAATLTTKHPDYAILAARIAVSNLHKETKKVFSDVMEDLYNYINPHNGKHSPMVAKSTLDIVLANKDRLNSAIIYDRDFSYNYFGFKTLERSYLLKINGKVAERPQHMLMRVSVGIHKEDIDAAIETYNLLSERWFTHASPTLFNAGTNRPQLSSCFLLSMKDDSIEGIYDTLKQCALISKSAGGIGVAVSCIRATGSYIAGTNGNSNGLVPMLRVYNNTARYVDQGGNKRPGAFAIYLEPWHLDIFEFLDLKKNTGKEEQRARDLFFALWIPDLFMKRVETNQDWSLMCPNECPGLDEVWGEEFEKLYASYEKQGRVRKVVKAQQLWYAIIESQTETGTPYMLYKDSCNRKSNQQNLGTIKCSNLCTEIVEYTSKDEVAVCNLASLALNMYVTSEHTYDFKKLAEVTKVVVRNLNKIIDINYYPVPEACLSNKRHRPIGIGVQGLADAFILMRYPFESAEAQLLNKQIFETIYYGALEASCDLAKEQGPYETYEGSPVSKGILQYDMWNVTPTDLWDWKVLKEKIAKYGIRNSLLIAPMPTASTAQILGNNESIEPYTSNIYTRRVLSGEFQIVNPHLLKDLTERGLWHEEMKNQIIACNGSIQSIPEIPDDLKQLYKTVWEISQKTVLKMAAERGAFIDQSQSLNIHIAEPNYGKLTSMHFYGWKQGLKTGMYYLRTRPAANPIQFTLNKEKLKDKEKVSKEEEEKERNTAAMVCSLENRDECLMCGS
T1 sequence (P31350 1-389 partner): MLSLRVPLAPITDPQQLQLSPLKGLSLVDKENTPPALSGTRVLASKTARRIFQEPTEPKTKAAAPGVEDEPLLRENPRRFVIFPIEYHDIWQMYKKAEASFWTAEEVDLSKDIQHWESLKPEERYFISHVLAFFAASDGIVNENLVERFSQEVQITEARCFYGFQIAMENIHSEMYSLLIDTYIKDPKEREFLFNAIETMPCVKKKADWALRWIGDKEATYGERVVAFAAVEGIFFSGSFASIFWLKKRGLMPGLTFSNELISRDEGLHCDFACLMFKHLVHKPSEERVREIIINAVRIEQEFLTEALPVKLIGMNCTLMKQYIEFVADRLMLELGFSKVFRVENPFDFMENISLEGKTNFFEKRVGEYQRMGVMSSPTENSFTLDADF

[8] = Severe acute respiratory syndrome coronavirus 2, Calu-3, Calu3 cells, read-out: Anti-SARS-CoV-2 Activity (Calu3) EC50
[9] = Severe acute respiratory syndrome coronavirus 2, Calu-3, Calu3 cells, read-out: Anti-SARS-CoV-2 Activity (Calu3) EC90
[10] = Severe acute respiratory syndrome coronavirus 2, Vero cells, read-out: Anti-SARS-CoV-2 Activity (Vero) EC50
[11] = Severe acute respiratory syndrome coronavirus 2, Vero cells, read-out: Anti-SARS-CoV-2 Activity (Vero) EC90

Row | Structure (SMILES) | CC50 [1] | CC50 [2] | EC50 (SARS-CoV-2; [8]) | EC90 (SARS-CoV-2; [9]) | EC50 (SARS-CoV-2; [10]) | EC90 (SARS-CoV-2; [11]) | CC50 [3] | CC50 [4] | CC50 (Vero cells [5]) | deoxy-NHC-TP detected in vero cells (Vero cells [6]; 10 μM NHC, cell pellet) | deoxy-NHC-TP detected in vero cells (Vero cells [6]; 50 μM NHC, cell pellet) | level of deoxy-NHC, -MP and -DP in vero cells (Vero cells [6]; cell pellet) | deoxy-NHC or its derivatives in vero cell medium (Vero cells [6]; supernatant) | EC50 (SARS-CoV-2; Severe acute respiratory syndrome coronavirus 2, read-out: Anti-SARS-Cov-2 EC50) | EC90 (SARS-CoV-2; Severe acute respiratory syndrome coronavirus 2, read-out: Anti-SARS-Cov-2 EC90) | EC50 (HCoV-OC43; read-out: Anti-Hcov-OC43 EC50) | EC90 (HCoV-OC43; read-out: Anti-Hcov-OC43 EC90) | CC50 (CEM cells) | ratio diphosphate : 2'-deoxy-diphosphate in the samples after RNR reaction [7] | ratio triphosphate : 2'-deoxy-triphosphate in the samples after RNR reaction [7]
1 | CC1(O)C(O)[C@H](n2ccc(NO)nc2=O)O[C@@H]1CO (stereo partly shown) | ≥ 100000 nM | > 100000 nM | > 100000 nM | > 100000 nM | 600 nM | 7400 nM | > 100000 nM | > 100000 nM |  |  |  |  |  |  |  |  |  |  |  | 
2 | [2H]C1(O)C(O)[C@H](n2ccc(NO)nc2=O)O[C@@H]1CO (stereo partly drawn) [D-NHC] | 27700 nM | 41600 nM | 200 nM | 900 nM | 100 nM | 250 nM | 24100 nM |  |  |  |  |  |  |  |  |  |  |  |  | 
3 | O=c1nc(NO)ccn1[C@@H]1O[C@H](CO)[C@@H](O)[C@H]1O [NHC, N^4-hydroxycytidine] |  |  | 600 nM | 2000 nM | 200 nM | 420 nM |  |  | 16500 nM | not | trace amount | below limit of detection | no deoxy-NHC or its derivatives was detected | 300 nM | 800 nM | 800 nM | 1800 nM | 2600 nM |  | 
4 | O=c1nc(NO)ccn1[C@@H]1O[C@H](COP(=O)(O)OP(=O)(O)O)[C@@H](O)[C@H]1O [NHC-DP] |  |  |  |  |  |  |  |  |  |  |  |  |  |  |  |  |  |  | around 100:0.1 | ~100:0.009
